Values of other authors in patent publication US7119079B2, “Bioadhesive pharmaceutical compositions” (priority 2003, dated 2006).

Legend:
[1] = tested on: distal ulcerative colitis; settings: enemas, patients with distal ulcerative colitis; fraction of patients
[2] = tested on: distal ulcerative colitis; settings: compared with hydrocortisone and mesalamine enemas
[3] = tested on: Mycobacterium tuberculosis

SMILES	patients showing improvement [1]	effectiveness of enemas in distal ulcerative colitis [2]	activity against Mycobacterium tuberculosis [3]
Nc1ccc(S(=O)(=O)Nc2ccccn2)cc1 [sulfapyridine]	about one third		
Nc1ccc(C(=O)O)c(O)c1 [Compound 4-ASA, 4-amino salicylic acid]		as effective as hydrocortisone enemas and as effective as mesalamine enemas	bacteriostatic
Nc1ccc(O)c(C(=O)O)c1 [mesalamine, 5-amino salicylic acid]	Three quarters		
O=C(O)c1cc(/N=N/c2ccc(S(=O)(=O)Nc3ccccn3)cc2)ccc1O [sulfasalazine, salicyl-azo-sulfapyridine]	Three quarters		
